The text below walks through data of ChEMBL document CHEMBL1201862, “PubChem BioAssay data set” (2004).

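Growth conditions: 96-well plates. Treatment: test compound, 48 hours, 5 concentrations. Analysis: linear interpolation between bracketing concentrations; unreached endpoints set to highest concentration. GI50 = concentration required for 50% inhibition of growth.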 Active and inactive are the calls of the source. Cut-off read from the data, not from the text of the source: active = GI50 up to about 1.1 µM and inactive = higher.

Among the test systems are U-251; SK-MEL-5; SF-268; NCI-H460; Hs-578T; COLO 205; RPMI-8226; TK-10; MCF7; CCRF-CEM; SNB-19; NCI-H522; NCI-H23; SK-OV-3; NCI-H226; K562; HL-60; HCT-116; BT-549; UACC-257.
Common to all, as to experiment: NCI tumour cell line growth inhibition, 48 h

Consider `N/C(CCSCCSCC/C(N)=N\O)=N\O`, for which the GI50 in the assay with U-251, in the assay on SK-MEL-5, in the assay on SF-268, in the assay with NCI-H460, in the assay with Hs-578T and in the assay with COLO 205 was > 100 µM (inactive) in each case. Also, the GI50 with RPMI-8226, with TK-10, in the assay on MCF7, in the assay on CCRF-CEM, in the assay on SNB-19 and in the assay on NCI-H522 was > 100 µM (inactive) in each case. The GI50 in the assay with NCI-H23, in the assay with SK-OV-3, with NCI-H226, in the assay on K562, in the assay on HL-60 and with HCT-116 was > 100 µM (inactive) throughout. The GI50 in the assay on BT-549 is > 100 µM (inactive).
Turning to `COc1cc(/C=N/c2ccccn2)cc(OC)c1OC`, the GI50 in the assay with U-251 is > 100 µM (inactive); with SK-MEL-5, > 93.1 µM (inactive); in the assay on SF-268 it was > 100 µM (inactive); with NCI-H460, > 100 µM (inactive); in the assay on Hs-578T, > 100 µM (inactive); with COLO 205, > 100 µM (inactive). Also, the GI50 in the assay with RPMI-8226 was 65 µM (inactive); in the assay with MCF7, 54.5 µM (inactive); in the assay on CCRF-CEM it was > 100 µM (inactive); with SNB-19 it was 80.5 µM (inactive); in the assay on NCI-H522 it was > 100 µM (inactive); with NCI-H23 it was > 100 µM (inactive). The GI50 in the assay on SK-OV-3 was > 63.8 µM (inactive); in the assay with NCI-H226, > 100 µM (inactive); in the assay on K562, > 100 µM (inactive); in the assay with HL-60, 1.87 µM (inactive); in the assay on HCT-116 it was > 100 µM (inactive); in the assay on UACC-257, > 100 µM (inactive). For the same molecule, in the assay on BT-549, the GI50 is > 100 µM (inactive).
As for `Cc1cc(CCC(=O)NCCNc2c3ccccc3nc3ccccc23)cc(C)c1O[Si](C)(C)C(C)(C)C`, the GI50 in the assay on U-251 is 0.312 µM (active); in the assay on NCI-H460, 0.762 µM (active); in the assay with Hs-578T, 2.01 µM (inactive); in the assay on COLO 205, 1.03 µM (active); with RPMI-8226 it was 0.331 µM (active); in the assay on TK-10, 1.63 µM (inactive). Moreover, the GI50 in the assay on MCF7 is 0.242 µM (active); in the assay with CCRF-CEM, 0.38 µM (active); in the assay on SNB-19, 1.85 µM (inactive); in the assay with NCI-H522, 1.73 µM (inactive); in the assay with NCI-H23 it was 1.93 µM (inactive); with SK-OV-3, 1.61 µM (inactive). The GI50 is 17.1 µM (inactive) with NCI-H226; 0.276 µM (active) with K562; 1.52 µM (inactive) with HL-60; 0.363 µM (active) in the assay on HCT-116; 2.01 µM (inactive) in the assay with UACC-257; 1.72 µM (inactive) in the assay on BT-549.
With `O=C(CCCN1CCC2(CC1)CC(=O)N(N1CCCCCC1)C2=O)c1ccccc1`, the GI50 in the assay with U-251, in the assay on SK-MEL-5, in the assay on SF-268, in the assay with Hs-578T, with COLO 205 and with RPMI-8226 was > 100 µM (inactive) in each case. The GI50 in the assay on TK-10, in the assay with MCF7, with CCRF-CEM, in the assay with SNB-19, in the assay with NCI-H522 and in the assay with NCI-H23 was > 100 µM (inactive) in each case. For the same molecule, the GI50 in the assay with SK-OV-3 is > 100 µM (inactive); with NCI-H226 it was > 100 µM (inactive); with K562, 70.8 µM (inactive); in the assay with HL-60, > 100 µM (inactive); with HCT-116, > 100 µM (inactive); with UACC-257, > 100 µM (inactive). Besides, the GI50 in the assay on BT-549 is > 100 µM (inactive).
Take `O=S(=O)(c1ccccc1)C(c1ccc2ccccc2n1)S(=O)(=O)c1ccccc1`: the GI50 in the assay on U-251, in the assay with SK-MEL-5, in the assay with SF-268, in the assay on NCI-H460, in the assay on Hs-578T and in the assay on COLO 205 was > 100 µM (inactive) each time. Besides, the GI50 in the assay on RPMI-8226 was > 100 µM (inactive); in the assay with TK-10 it was > 100 µM (inactive); with MCF7 it was > 100 µM (inactive); with SNB-19, > 100 µM (inactive); in the assay with NCI-H522, 90.2 µM (inactive); with NCI-H23, > 100 µM (inactive). The GI50 with NCI-H226, with K562, in the assay with HL-60, in the assay on HCT-116, in the assay with UACC-257 and with BT-549 was > 100 µM (inactive) throughout.
As to `O=C1/C(=C/c2ccc(Cl)cc2)CCCc2ccccc21`, the GI50 in the assay on U-251 was 14.2 µM (inactive); in the assay with SF-268 it was 13.9 µM (inactive); in the assay on NCI-H460 it was 17.7 µM (inactive); in the assay on Hs-578T it was 11.7 µM (inactive); with COLO 205, 20.6 µM (inactive); in the assay with RPMI-8226 it was 12.8 µM (inactive). Further, the GI50 in the assay on TK-10 is 21.6 µM (inactive); with MCF7 it was 17.2 µM (inactive); in the assay with CCRF-CEM, 12.5 µM (inactive); in the assay on SNB-19, 18.4 µM (inactive); in the assay on NCI-H522 it was 11.7 µM (inactive); in the assay with NCI-H23, 23.7 µM (inactive). Further, the GI50 was 43.1 µM (inactive) with SK-OV-3; 16.4 µM (inactive) with NCI-H226; 3.24 µM (inactive) with K562; 13.7 µM (inactive) in the assay on HL-60; 13.6 µM (inactive) with HCT-116; 28.8 µM (inactive) with UACC-257. For the same molecule, the GI50 in the assay with BT-549 is 20.3 µM (inactive).
As to `O=C1[C@@H]2Cc3c([nH]c4ccccc34)C(C3CCCCC3)N2C(=O)[C@@H]2CCCN12` (some centres not stated), the GI50 in the assay on U-251 is 33.8 µM (inactive); in the assay on SK-MEL-5, 17.7 µM (inactive); with SF-268, 33.5 µM (inactive); in the assay with Hs-578T it was 27.9 µM (inactive); with COLO 205, 21.5 µM (inactive); in the assay on RPMI-8226, 21.3 µM (inactive). Moreover, the GI50 in the assay on TK-10 was 35.6 µM (inactive); in the assay with MCF7 it was 30.4 µM (inactive); in the assay on SNB-19, 39.9 µM (inactive); in the assay on NCI-H522, 23 µM (inactive); in the assay on NCI-H23 it was 38.1 µM (inactive); in the assay on SK-OV-3, 46.9 µM (inactive). Moreover, the GI50 with NCI-H226 was 43.1 µM (inactive); in the assay with K562, 37.2 µM (inactive); in the assay on HL-60 it was 27.3 µM (inactive); with HCT-116, 27.5 µM (inactive); in the assay on UACC-257, 29.2 µM (inactive); with BT-549 it was 30.6 µM (inactive).
On to `CCC(=O)Nc1cccc(NC(=O)c2c(Cl)c(Cl)c(Cl)c(Cl)c2-c2nc3ccccc3[nH]2)c1`, for which the GI50 was > 100 µM (inactive) in the assay with SK-MEL-5; 79.4 µM (inactive) in the assay with SF-268; 37.8 µM (inactive) in the assay with NCI-H460; > 100 µM (inactive) with Hs-578T; 53.1 µM (inactive) with COLO 205; 8.02 µM (inactive) in the assay with RPMI-8226. Besides, the GI50 with MCF7 is 12.7 µM (inactive); in the assay with CCRF-CEM, 7.45 µM (inactive); in the assay on SNB-19 it was 1.03 µM (active); in the assay with NCI-H522, 56.2 µM (inactive); in the assay on NCI-H23, > 100 µM (inactive); in the assay with K562 it was 25.4 µM (inactive). Besides, the GI50 in the assay on HL-60 is 43 µM (inactive); with HCT-116, 7.82 µM (inactive); with UACC-257, 59 µM (inactive); with BT-549 it was 87.3 µM (inactive).
`CN(C)c1ccc(/C=C(\NC(=O)c2ccccc2)C(=O)NCC(=O)O)cc1`: the GI50 in the assay on U-251, with SK-MEL-5, in the assay on SF-268, with NCI-H460, in the assay on Hs-578T and in the assay on COLO 205 was > 100 µM (inactive) each time. The GI50 in the assay with RPMI-8226, in the assay with MCF7, with CCRF-CEM, with SNB-19, with NCI-H522 and in the assay with NCI-H23 was > 100 µM (inactive) in each case. Besides, the GI50 with SK-OV-3 was > 100 µM (inactive); with NCI-H226, > 100 µM (inactive); in the assay with K562, > 100 µM (inactive); in the assay on HL-60, 0.0755 µM (active); in the assay on HCT-116, > 100 µM (inactive); in the assay on UACC-257 it was > 100 µM (inactive). For the same molecule, the GI50 with BT-549 is > 100 µM (inactive).
As for `CS(=O)(=O)C[S+]([O-])C[S+]([O-])C[S+]([O-])CC(NC(=O)CCC(N)C(=O)O)C(=O)O` (configuration not stated), the GI50 with U-251 was > 100 µM (inactive); in the assay on SK-MEL-5, > 100 µM (inactive); in the assay on SF-268, > 100 µM (inactive); in the assay with NCI-H460 it was > 100 µM (inactive); with Hs-578T it was 51.8 µM (inactive); with COLO 205, > 100 µM (inactive). Further, the GI50 with RPMI-8226, with TK-10, in the assay on MCF7, in the assay on CCRF-CEM, with SNB-19 and with NCI-H522 was > 100 µM (inactive) throughout. Further, the GI50 with NCI-H23 is > 100 µM (inactive); in the assay on K562, > 100 µM (inactive); in the assay with HL-60, 32.8 µM (inactive); in the assay on HCT-116, > 100 µM (inactive); in the assay with UACC-257 it was > 100 µM (inactive); in the assay on BT-549 it was > 100 µM (inactive).
For the molecule `CCN(CC)C(=O)N1CN(c2ccccc2)C2(CCN(CCCSc3ccc(F)cc3)CC2)C1=O`, the GI50 in the assay on U-251 is 11.9 µM (inactive); in the assay on SK-MEL-5, 3.66 µM (inactive); in the assay with SF-268, 11.1 µM (inactive); in the assay on Hs-578T, 2.79 µM (inactive); in the assay with COLO 205 it was 1.92 µM (inactive); in the assay with RPMI-8226, 5.81 µM (inactive). Further, the GI50 in the assay with TK-10 was 10.3 µM (inactive); with MCF7, 4.19 µM (inactive); with CCRF-CEM it was 4.2 µM (inactive); with SNB-19, 9.79 µM (inactive); in the assay with NCI-H522 it was 13.2 µM (inactive); in the assay on NCI-H23, 7.83 µM (inactive). Further, the GI50 in the assay with SK-OV-3 is 19 µM (inactive); in the assay on NCI-H226, 18.9 µM (inactive); in the assay on K562, 8.32 µM (inactive); with HL-60 it was 5.37 µM (inactive); with HCT-116, 2.58 µM (inactive); in the assay on UACC-257, 3.32 µM (inactive). The GI50 in the assay with BT-549 is 13.5 µM (inactive).
